ChEMBL document CHEMBL4420061, “Compositions and methods of inhibiting retinal degeneration” (2013)
Active and inactive are the calls of the source. The calls are words filed in the database; no cut-off is given here.

Key:
[1] = system: Rattus norvegicus; experiment: Inhibition of rhodopsin regeneration in overnight dark-adaptated Sprague-Dawley rat assessed as effect on rhodopsin recovery by measuring rhodopsin content at 50 mg/kg, ip followed by exposure to room light for 2 hrs and measured 2.5 hrs after photo-bleach by spectrophotometry; assay type: functional, organism-based
[2] = system: Rattus norvegicus; experiment: Protection against light-induced retinal degeneration in Sprague-Dawley rat assessed as photoreceptor levels in central and superior retina at 50 mg/kg, ip dosed 0.5 hrs before 6 hrs light exposure relative to control; assay type: functional
[3] = system: Rattus norvegicus; experiment: (§1) Protection against light-induced retinal degeneration in Sprague-Dawley rat assessed as suppression of light-induced retinal function loss by measuring Rod-a and b-wave responses at 50 mg/kg, ip dosed 0.5 hrs before 6 hrs light exposure and measured 7 days after light-exposure by electroretinography; assay type: functional, organism-based
[4] = system: Mus musculus; experiment: Inhibition of rhodopsin regeneration in completely light-adapted mouse BALB/c mouse assessed as rhodopsin recovery level by measuring effect on rhodopsin content at 5% dosed to eyes via eye drop before dark adaptation for 1 hr by spectrophotometry (reference value: 78.83%); assay type: functional; set-up: scale not given: the % may be the effect or the level left
[5] = system: Rattus norvegicus; experiment: Protection against light-induced retinal degeneration in Sprague-Dawley rat assessed as suppression of light-induced retinal structure loss at 50 mg/kg, ip dosed 0.5 hrs after 6 hrs light exposure and measured 7 days after light-exposure by electroretinography; assay type: functional, organism-based
[6] = system: Rattus norvegicus; experiment: Protection against light-induced retinal degeneration in Sprague-Dawley rat assessed as suppression of light-induced retinal function loss by measuring Rod-a and b-wave responses at 50 mg/kg, ip dosed 0.5 hrs after 6 hrs light exposure and measured 7 days after light-exposure by electroretinography; assay type: functional, organism-based
[7] = system: Rattus norvegicus; experiment: (§2) Protection against light-induced retinal degeneration in Sprague-Dawley rat assessed as suppression of light-induced retinal function loss by measuring preservation of cone function at 50 mg/kg, ip dosed after 6 hrs light exposure and measured 7 days after light-exposure by electroretinography; assay type: functional, organism-based
[8] = system: Rattus norvegicus; experiment: Protection against light-induced retinal degeneration in Sprague-Dawley rat assessed as suppression of light-induced retinal structure loss at 50 mg/kg, ip dosed 0.5 hrs before 6 hrs light exposure and measured 7 days after light-exposure by electroretinography; assay type: functional, organism-based
[9] = system: Rattus norvegicus; experiment: as §2, with “dosed 16 to 24 hrs before” for “dosed after”; assay type: functional, organism-based
[10] = target: T1, Retinoid isomerohydrolase (Rattus norvegicus) (UniProt O70276); experiment: Inhibition of RPE65 in rat RPE microsomes assessed as reduction in isomero-hydrolase activity by measuring 11-cis-retinol generation using all-trans-[3H]-retinol by HPLC analysis
T1 sequence (whole entry): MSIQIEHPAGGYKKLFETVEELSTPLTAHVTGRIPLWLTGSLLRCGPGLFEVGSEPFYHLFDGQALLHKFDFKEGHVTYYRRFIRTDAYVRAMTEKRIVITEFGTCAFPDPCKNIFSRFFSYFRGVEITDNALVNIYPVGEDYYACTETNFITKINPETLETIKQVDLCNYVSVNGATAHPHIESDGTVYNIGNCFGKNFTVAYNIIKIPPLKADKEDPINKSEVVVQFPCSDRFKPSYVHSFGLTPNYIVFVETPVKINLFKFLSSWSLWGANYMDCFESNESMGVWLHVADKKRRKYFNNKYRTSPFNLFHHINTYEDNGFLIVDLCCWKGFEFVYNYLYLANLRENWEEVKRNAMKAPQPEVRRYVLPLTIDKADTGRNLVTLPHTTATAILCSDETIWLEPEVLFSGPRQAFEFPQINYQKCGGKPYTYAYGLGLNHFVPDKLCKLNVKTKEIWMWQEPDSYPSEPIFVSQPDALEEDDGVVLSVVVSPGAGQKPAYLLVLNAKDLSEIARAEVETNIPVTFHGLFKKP

[11] = system: Rattus norvegicus; experiment: as §2, with “dosed 0.5 to 12 hrs before” for “dosed after”; assay type: functional, organism-based
[12] = system: Rattus norvegicus; experiment: Protection against light-induced retinal degeneration in overnight dark-adaptated Sprague-Dawley rat assessed as protection of retinal rod function by measuring effect on A-waves at 50 mg/kg, ip dosed 30 mins prior to exposure to 4 log cd.s/m2 test flash by electroretinography relative to control; assay type: functional
[13] = system: Rattus norvegicus; experiment: Protection against light-induced retinal degeneration in Sprague-Dawley rat assessed as suppression of light-induced retinal structure loss at 50 mg/kg, ip dosed 16 to 24 hrs before 6 hrs light exposure and measured 7 days after light-exposure by electroretinography; assay type: functional, organism-based
[14] = system: Mus musculus; experiment: Inhibition of rhodopsin regeneration in completely light-adapted mouse BALB/c mouse assessed as effect on rhodopsin content at 10% dosed to eyes via eye drop for 2 times at 3 and 0 hrs before dark adaptation for 1 hr by spectrophotometry; assay type: functional, organism-based
[15] = system: Mus musculus; experiment: Inhibition of rhodopsin regeneration in completely light-adapted mouse BALB/c mouse assessed as effect on rhodopsin content at 10% dosed to eyes via eye drop followed by mouse moving to dark for 1 hr by spectrophotometry; assay type: functional, organism-based
[16] = system: Mus musculus; experiment: Inhibition of rhodopsin regeneration in completely light-adapted mouse BALB/c mouse assessed as effect on rhodopsin content at 10% dosed to eyes via eye drop for 3 times at 6, 3 and 0 hrs before dark adaptation for 1 hr by spectrophotometry; assay type: functional, organism-based
[17] = system: Rattus norvegicus; experiment: Effect on cone function in Sprague-Dawley rat at 50 mg/kg, ip under steady rod-suppressing background illumination 60 mins post compound dosing by single- and flicker-flash ERG recordings based assay; assay type: functional, organism-based
[18] = system: Rattus norvegicus; experiment: (§3) Inhibition of rhodopsin regeneration in overnight dark-adaptated Sprague-Dawley rat assessed as effect on rhodopsin recovery by measuring rhodopsin content at 50 mg/kg, ip followed by exposure to room light for 2 hrs and measured 3 hrs after photo-bleach by spectrophotometry (reference value: 100%); assay type: functional; set-up: scale not given: the % may be the effect or the level left
[19] = system: Baboon; experiment: Inhibition of rhodopsin regeneration in anesthetized baboon assessed as rhodopsin regeneration by measuring rhodopsin content in eye at 10 mg/ml dosed as two drops for every 15 minutes for 1.75 hrs by spectrophotometry (reference value: 100%); assay type: functional, Papio; set-up: scale not given: the % may be the effect or the level left
[20] = system: Rattus norvegicus; experiment: as §1, with “16 to 24” for “0.5”; assay type: functional, organism-based
[21] = system: Mus musculus; experiment: Protection against light-induced retinal degeneration in BALB/c mouse assessed as suppression of light-induced retinal rod function loss at 10% topical application dosed 0.5 hrs before 6 hrs light exposure and measured 5 days after light-exposure by electroretinography; assay type: functional, organism-based
[22] = Drug level in […] in anesthetized baboon assessed per mg wet weight at 10 mg/ml dosed as two drops for every 15 minutes for 1.75 hrs by mass spectrometry; assay type: ADME, organism-based, Papio; settings: in vivo, topical_or_ocular
[23] = system: Rattus norvegicus; experiment: as §1, with “up to 12” for “0.5”; assay type: functional, organism-based
[24] = organism: Mus musculus; experiment: Inhibition of retinal RDH activity in mouse retinal microsomes assessed as effect on NADPH-dependent reduction of all-trans-retinal; settings: Retina
[25] = Drug level in posterior eye cup of completely light-adapted mouse BALB/c mouse at 10% dosed to eyes via eye drop for 3 times at 6, 3 and 0 hrs before dark adaptation for 1 hr by mass spectrometry; assay type: ADME, organism-based; settings: in vivo, topical_or_ocular
[26] = target: T2, Lecithin retinol acyltransferase (Rattus norvegicus) (UniProt Q9JI61); experiment: Inhibition of LRAT in rat RPE microsomes assessed as reduction in retinyl-ester at 1 mM using all-trans-[3H]-retinol by HPLC analysis
T2 sequence (whole entry): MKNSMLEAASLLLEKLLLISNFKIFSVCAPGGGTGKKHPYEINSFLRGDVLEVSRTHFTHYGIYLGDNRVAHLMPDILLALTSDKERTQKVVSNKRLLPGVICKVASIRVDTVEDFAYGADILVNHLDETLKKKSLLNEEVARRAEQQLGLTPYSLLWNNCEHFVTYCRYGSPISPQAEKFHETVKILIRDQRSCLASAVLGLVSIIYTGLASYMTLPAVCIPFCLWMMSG

[27] = system: Rattus norvegicus; experiment: Protection against light-induced retinal degeneration in Sprague-Dawley rat assessed as suppression of light-induced retinal structure loss at 50 mg/kg, ip dosed up to 12 hrs before 6 hrs light exposure and measured 7 days after light-exposure by electroretinography; assay type: functional, organism-based
[28] = target: T1, Retinoid isomerohydrolase (Rattus norvegicus); experiment: Inhibition of RPE65 in rat RPE microsomes assessed as reduction in isomero-hydrolase activity by measuring 11-cis-retinol generation at 1 mM using all-trans-[3H]-retinol by HPLC analysis
[29] = system: Rattus norvegicus; experiment: as §3, with “45 mins” for “3 hrs”; assay type: functional; set-up: scale not given: the % may be the effect or the level left

## CC(C)(C)/[N+]([O-])=C/c1ccc(F)cc1
[1]
  inhibition: Active
[2]
  Activity: Active

## CC(C)(C)/[N+]([O-])=C/c1ccccc1S(=O)(=O)[O-].[Na+]
[3]
  Activity: inactive
[4]
  Activity: 84.64%
[5]
  Activity: inactive
[6]
  Activity: inactive
[7]
  Activity: inactive
[8]
  Activity: inactive
[9]
  Activity: inactive
[10]
  inhibition: inactive
[11]
  Activity: inactive

## CC(C)(C)/[N+]([O-])=C/c1ccc(C(F)(F)F)cc1
[1]
  inhibition: Active
[12]
  Activity: 804%
[2]
  Activity: Active

## CC(C)(C)/[N+]([O-])=C/c1ccccc1
[13]
  Activity: inactive
[14]
  inhibition: Active
[3]
  Activity: Active
[15]
  inhibition: Active
[16]
  inhibition: Active
[17]
  Activity: inactive
[1]
  inhibition: Active
[5]
  Activity: inactive
[18]
  Activity: 0%
[19]
  Activity: 26 - 36%
[6]
  Activity: inactive
[20]
  Activity: inactive
[21]
  Activity: Active
[22]
  Drug uptake: 23.5 to 24.2 ng
[23]
  Activity: Active
[7]
  Activity: inactive
[24]
  inhibition: inactive
[8]
  Activity: Active
[25]
  Drug uptake: Active
[26]
  inhibition: inactive
[9]
  Activity: inactive
[10]
  inhibition: Dose-dependent effect
[11]
  Activity: Active
[27]
  Activity: Active
[28]
  inhibition: 100%
[2]
  Activity: 90%
[29]
  Activity: 0%

## Cc1ccc(/C=[N+](\[O-])C(C)(C)C)cc1
[1]
  inhibition: Active
[2]
  Activity: Active
